Test results published in US20100099640A1, “TISSUE DEGENERATION PROTECTION” (priority 2007, published 2010).

Key:
[1] = test system: hypertensive rats; details: direct intravenous injection; cited from earlier work
[2] = test system: bacteria of the colon; details: cited from earlier work
[3] = test system: Chinese hypertensive men and women; details: cited from earlier work
[4] = Body weight of DKO mice during the 12-week treatment period; assay type: in vivo, mouse; details: stevioside 10 mg/kg orally for 12 weeks (12 to 24 weeks of age); placebo 43%
Method: (§1) Homozygous LDL-receptor-knockout mice (LDLR^(−/−)), heterozygous ob/+, and C57BL6 mice were purchased from Jackson Laboratory, Bar Harbor, Me. LDLR^(−/−) mice were backcrossed into a C57BL6 background to the 10th generation. To obtain DKO mice with combined leptin deficiency (ob/ob) and LDL-receptor deficiency, LDLR^(−/−) and ob/+ mice were crossed. All offspring were genotyped by polymerase chain reaction (PCR) techniques. All mice were housed at 22° C. on a fixed 12/12-hour light/dark cycle. Experimental procedures in animals were performed in accordance with protocols approved by the Institutional Animal Care and Research Advisory Committee. All mice were fed standard chow containing 4% fat (Pavan Service). Food intake was ≈5.7 g/d. Mice (about 50 g) were treated with stevioside (N=14; 10 mg/kg), steviol (N=9; 5 mg/kg) or placebo (N=17) for 12 weeks between 12 and 24 weeks of age. Stevioside (Molecular weight: 804) was dissolved in water (1 mg/ml) and 500 μl of the solution was administered orally. Steviol (Molecular weight: 318) was dissolved in water containing 6% NaHCO3 (1 mg/ml) and 250 μl of the solution was administered orally.

[5] = test system: RNA expression in aortic arch; test: Real-time RT-PCR of RNA expression in aortic arch of treated DKO mice; assay type: in vivo, mouse
Method: as §1
The level of RNA expression in extracts of white visceral (intra-abdominal) adipose tissue and aortic arch was measured by real-time reverse transcription (RT)-PCR. Total RNA was extracted with the Trizol reagent (InVitrogen) and purified on an RNeasy kit column (Qiagen). First-strand cDNA was generated from total RNA by RT using random primers from Takara and Superscript III reverse transcriptase (InVitrogen). Quantitative real-time PCR was performed using SybrGreen master mix according to the supplier protocols (Applied Biosystems).). Oligonucleotides (InVitrogen) used as forward primer (F) and reverse primer (R) were: for mouse PPARalpha: F: 5′-[…]-3′; R: 5′-[…]-3′; for mouse PPARgamma: F: 5′-[…]-3′; R: 5′-GTCAGCGGGTGGGACTTTC-3′; for mouse FABP4: F: 5′-AACTGGGCGTGGAATTCG-3′; R: 5′-[…]-3′; for mouse iNOS: F: 5′-[…]-3′; R: 5′-[…]-3′; for mouse GLUT-4: F: 5′-[…]-3′; R: 5′-[…]-3′; for mouse IRS-1: F: 5′-[…]-3′; R: 5′-CGCCTCGGGAAGAGACAGT-3′; for mouse IRS-2: F: 5′-[…]-3′: R: 5′-[…]-3′; for mouse LXRalpha: F: 5′-[…]-3′; R: 5′-[…]-3′; for mouse SOD1: F: 5′-[…]-3′; R: 5′-[…]-3′; for mouse SOD2: F: 5′-TCGGTGGCGTTGAGATTGT; R: 5′-[…]-3′; for mouse SOD3: F: 5′-[…]-3′; R: 5′-GCTGCCGGAAGAGAACCAA-3′; and for mouse β-actin (housekeeping gene), F: 5′-[…]-3′; R: 5′-[…]-3′. The level of mRNA expression was calculated using the threshold cycle (Ct) value, i.e., the number of PCR cycles at which the fluorescent signal during the PCR reaches a fixed threshold. For each sample, the Ct both for the gene of interest and for the housekeeping gene β-actin were determined to calculate ΔCt,sample (Ct,target gene−Ct,housekeeping gene), thus normalizing the data and correcting for differences in amount and/or quality between the different RNA samples. The expression levels were related to an external calibrator consisting of intra-abdominal adipose tissue from C57BL6 control mice. Subsequently, ΔΔCt (ΔCt,sample−ΔCt,calibrator) was determined, and the relative expression levels were calculated from 2^−ΔΔCt according to the manufacturer's instructions (Applied Biosystems). RNA expression levels are thus indicated as arbitrary units ±SD

[6] = aortic arch, stevioside 10 mg/kg orally, 12 weeks

SMILES: C=C1C[C@@]23CC[C@H]4C(C)(CCC[C@@]4(C)C(=O)O[C@@H]4O[C@H](CO)C(O)[C@H](O)C4O)[C@@H]2CCC1(OC1O[C@H](CO)C(O)C(O)C1OC1O[C@H](CO)C(O)[C@H](O)C1O)C3 (stereo in doubt) [stevioside, Kaur-16-en-18-oic acid, 13-[(2-O-b-D-glucopyranosyl-b-D-glucopyranosyl)oxy]-, b-D-glucopyranosyl ester, (4a)-]
- blood pressure [1]: blood pressure reduction
- degradation by bacteria of the colon [2]: degraded
- lowering of systolic and diastolic blood pressure ([3]; 750 mg or 1500 mg of stevioside a day for one or two years): about 7%
- fasting glucose concentrations ([3]; long-term administration, volunteers with normal glucose levels): did not reveal effects
- increase of weight during the treatment period [4]: 41%
- eNOS ([5]; aorta of stevioside-treated mice): not affected
- expression of IRS2 [5, 6]: increased expression
- expression of PPARalpha [5, 6]: did not increase
- expression of SOD1 [5, 6]: increased expression
- expression of SOD2 [5, 6]: increased expression
- expression of the inflammatory iNOS [5, 6]: decreased the expression
